Structures can show the parent of a compound that is named as a salt. Where two headings read alike, the source gives them in different places. Marks after values point to notes of the source that are not given here.
Key:
[1] = Solubility of solid state forms in solvents (gravimetric or solvent addition); format: physicochemical
Protocol: The solubility of certain solid state forms of Compound I was determined in various solvents by either gravimetric solubility or solvent addition.
About 25 mg of compound was weighed into vials. Approximately 5 vol. (0.125 mL) of solvent was added to the solids and the mixtures stirred at the designated temperature (RT or 50° C.). Solutions were noted and an additional 0.125 mL of solvent was added to the slurries. […] If a thicker slurry was noted, 0.25 mL of solvent was added (total volume 0.5 mL). If a thick slurry was again noted, an additional 0.25 mL of solvent was added (total volume 0.75 mL). After stirring for 2 days, the slurries were centrifuged, the supernatant was collected into preweighed vials, and the solvent evaporated at 50° C. (ambient pressure) without stirring. The vials containing the solid residues were dried in a vacuum oven at 50 C, 10^−2-10^−1 Torr, for 3 h before weighing again to determine the mass of solid that was dissolved in the supernatant (i.e. mg solid/mL solvent).
About 20 mg of compound was weighed into vials. Solvent was added in aliquots and stirred at the designated temperature until complete dissolution was observed. This measurement gave a solubility range.

[2] = Solubility in simulated fluids and water; format: physicochemical; conditions: 37° C.
Protocol: Calibration samples for solubility in simulated fluids were prepared with freebase Compound I.
Solubility in simulated fluids were studied with the mandelate and maleate solids. The simulated fluids FaSSIF (fasted-state intestinal), FaSSGF (fasted-state gastric), and FeSSIF (fed-state intestinal) were removed from the refrigerator, warmed to room temperature, and the pH of each was measured. Between 1.9 and 2.0 mg of each salt was weighed into four vials and 1 mL of each fluid was added, including water. Stir bars (10 mm) were added to the vials and the vials were stirred at 37° C. After 30 mi (mandelate samples) or 1 h (maleate samples), the pH of each solution was measured, then 400 μL of each was removed and syringe filtered with 0.45 µm syringe filters. Approximately 300 μL of the recovered filtrate was diluted 5× with diluent and injected for HPLC analysis. The remainder of the samples in the vials were allowed to stir overnight. After 24 h stirring at 37° C., samples were filtered and diluted as before, and injected for analysis.

[3] = Dynamic vapor sorption (DVS); format: physicochemical
Protocol: DVS was performed using a DVS Intrinsic 1. The sample (20-25 mg) was loaded into a sample pan, suspended from a microbalance and exposed to a humidified stream of nitrogen gas. The sample was held for a minimum of 5 min at each level and only progressed to the next humidity level if there was <0.002% change in weight between measurements (interval: 60 s) or 240 min had elapsed. The following program was used: • 1. Equilibration at 50% RH • 2. 50% to 2%. (50%, 40%, 30%, 20%, 10%, and 2%) • 3. 2% to 95% (2%, 10%, 20%, 30%, 40%, 50%, 60%, 70%, 80%, 90%, and 95%) • 4. 95% to 2% (95%, 80%, 70%, 60%, 50%, 40%, 30%, 20%, 10%, and 2%) • 5. 2% to 50% (2%, 10%, 20%, 30%, 40%, and 50%)

[4] = Form stability at ambient conditions for one week (XRPD); format: physicochemical
Description: Some of the samples generated in the antisolvent crystallization experiments were mixtures of Pattern B, Pattern C, and Pattern D. These samples were left at ambient conditions for one week, then analyzed again by XRPD.
Pure Pattern B was generated in the antisolvent crystallization with MIBK and heptane. […] The solids were scraped from the XRPD plate and used for simultaneous TGA/DSC analysis. […] After the solids required for the TGA/DSC analysis were transferred to the pan, the remainder of the solids were re-pressed to the XRPD sample plate and analyzed again.

[5] = Stability of crystalline forms at 40° C. and 75% relative humidity (XRPD, HPLC purity); conditions: for Change by XRPD after storage / Degradation by HPLC purity analysis after storage: 40° C., 75% relative humidity
Protocol: Approximately 10 mg of the Crystalline Pattern D of Compound I Maleate, 20 mg of the Crystalline Pattern C of Compound I Maleate, and 10 mg of the Crystalline Pattern E of Compound I Mandelate were weighed into open 4 mL vials that were placed into a 20 mL vial containing a saturated NaCl solution. The vial was sealed and kept at 40° C. for 7 days, creating an atmosphere at 75% relative humidity in the system. After 7 days, the materials were sampled and plated for XRPD analysis.
The stability test was repeated on Patterns C and D of Compound I Maleate for 11 days.

Q: What does the source list for CCOc1ccccc1-c1ccc(N2CCN(C(=O)C3(C(F)(F)F)CCC3)C[C@H]2CC)c(C(=O)N[C@@H]2CN3CCC2CC3)n1 [Pattern D Maleate, N-[(3S)-1-azabicyclo[2.2.2]octan-3-yl]-6-(2-ethoxyphenyl)-3-[(2R)-2-ethyl-4-[1-(trifluoromethyl)-cyclobutanecarbonyl]piperazin-1-yl]pyridine-2-carboxamide maleate]?
A: Solubility (in words) ([1]; EtOAc and MIBK at RT and 50° C.): freely soluble and soluble; solubility ([1]; EtOAc, 50 °C, organic solvent or mixture, thermodynamic from solid, EtOAc, 50° C., read-out: Solubility): 68000 µg/mL; solubility ([1]; EtOAc, RT, maleate): 43^d mg/mL; solubility ([1]; EtOH, RT, maleate): >50^a mg/mL; solubility ([1]; EtOH:MtBE (1:9 vol.), organic solvent or mixture, thermodynamic from solid, EtOH:MtBE (1:9 vol.), RT, read-out: Solubility): 4000 µg/mL; solubility ([1]; EtOH:MtBE (3:7 vol.), organic solvent or mixture, thermodynamic from solid, EtOH:MtBE (3:7 vol.), RT, read-out: Solubility): 51000 µg/mL; Solubility (in words) ([1]; IP at RT): soluble; Behaviour in solvent (in words) ([1]; IPA, 50° C.): a slurry could not be maintained; solubility ([1]; IPA, organic solvent or mixture, thermodynamic from solid, IPA, RT, read-out: Solubility): 68000 µg/mL; solubility ([1]; IPA:MtBE (1:1 vol.), organic solvent or mixture, thermodynamic from solid, IPA:MtBE (1:1 vol.), RT, read-out: Solubility): 10000 µg/mL; solubility ([1]; IPA:MtBE (1:9 vol.), organic solvent or mixture, thermodynamic from solid, IPA:MtBE (1:9 vol.), RT, read-out: Solubility): < 3000 µg/mL; solubility ([1]; IPA:MtBE (3:7 vol.), organic solvent or mixture, thermodynamic from solid, IPA:MtBE (3:7 vol.), RT, read-out: Solubility): 7000 µg/mL; solubility ([1]; IPA:water (9:1 vol.), organic solvent or mixture, thermodynamic from solid, IPA:water (9:1 vol.), RT, read-out: Solubility): > 333000 µg/mL; solubility ([1]; IPAc, 50 °C, organic solvent or mixture, thermodynamic from solid, IPAc, 50° C., read-out: Solubility): 13000 µg/mL; solubility ([1]; IPAc, organic solvent or mixture, thermodynamic from solid, IPAc, RT, read-out: Solubility): 7000 µg/mL; solubility ([1]; MEK, RT, maleate): >50^a mg/mL; solubility ([1]; MIBK, 50 °C, organic solvent or mixture, thermodynamic from solid, MIBK, 50° C., read-out: Solubility): 65000 µg/mL; solubility ([1]; MIBK, RT, maleate): 43^c mg/mL; solubility ([1]; MeOAc, 50 °C, organic solvent or mixture, thermodynamic from solid, MeOAc, 50° C., read-out: Solubility): > 250000 µg/mL; solubility ([1]; MeOAc, organic solvent or mixture, thermodynamic from solid, MeOAc, RT, read-out: Solubility): 168000 µg/mL; solubility ([1]; MeOAc:MtBE (1:1 vol.), organic solvent or mixture, thermodynamic from solid, MeOAc:MtBE (1:1 vol.), RT, read-out: Solubility): 17000 µg/mL; solubility ([1]; MeOAc:MtBE (1:9 vol.), organic solvent or mixture, thermodynamic from solid, MeOAc:MtBE (1:9 vol.), RT, read-out: Solubility): 3000 µg/mL; solubility ([1]; MeOAc:MtBE (3:7 vol.), organic solvent or mixture, thermodynamic from solid, MeOAc:MtBE (3:7 vol.), RT, read-out: Solubility): 7000 µg/mL; solubility ([1]; MeOH, RT, maleate): >50^a mg/mL; solubility ([1]; MtBE, 50 °C, organic solvent or mixture, thermodynamic from solid, MtBE, 50° C., read-out: Solubility): < 3000 µg/mL; solubility ([1]; MtBE, RT, maleate): <3^c mg/mL; solubility ([1]; THF, RT, maleate): >50^a mg/mL; solubility ([1]; acetone, RT, maleate): >50^a mg/mL; solubility ([1]; diethyl ether, organic solvent or mixture, thermodynamic from solid, diethyl ether, RT, read-out: Solubility): 4000 µg/mL; Solubility (in words) ([1]; heptane, diethyl ether, and MtBE): insoluble; solubility ([1]; n-heptane, 50 °C, organic solvent or mixture, thermodynamic from solid, n-heptane, 50° C., read-out: Solubility): < 3000 µg/mL; solubility ([1]; n-heptane, RT, maleate): <3^c mg/mL; solubility at 1 h ([2]; FaSSGF (fasted-state simulated gastric fluid), pH 1.49, fassgf or other biorelevant, thermodynamic from solid, FaSSGF, 1 h): > 2500 µg/mL; solubility at 24 h ([2]; FaSSGF (fasted-state simulated gastric fluid), pH 1.49, fassgf or other biorelevant, thermodynamic from solid, FaSSGF, 24 h): > 2500 µg/mL; Sample pH ([2]; FaSSGF (initial pH 1.49), 1 h): 4.66; Sample pH ([2]; FaSSGF (initial pH 1.49), 24 h): 5.07; solubility at 24 h ([2]; FaSSIF (fasted-state simulated intestinal fluid), pH 6.35, thermodynamic from solid, FaSSIF, 24 h): 1470 µg/mL; solubility at 1 h ([2]; FaSSIF (fasted-state simulated intestinal fluid), thermodynamic from solid, FaSSIF, 1 h): 1500 µg/mL; Sample pH ([2]; FaSSIF (initial pH 6.35), 1 h): 6.23; Sample pH ([2]; FaSSIF (initial pH 6.35), 24 h): 6.92; Solids recovered from the solubility experiment (appearance, XRPD) ([2]; FaSSIF, after 24 h): oily and appeared as amorphous; solubility at 1 h ([2]; FeSSIF (fed-state simulated intestinal fluid), pH 4.83, thermodynamic from solid, FeSSIF, 1 h): > 2500 µg/mL; solubility at 24 h ([2]; FeSSIF (fed-state simulated intestinal fluid), pH 4.83, thermodynamic from solid, FeSSIF, 24 h): > 2500 µg/mL; Sample pH ([2]; FeSSIF (initial pH 4.83), 1 h): 1.50; Sample pH ([2]; FeSSIF (initial pH 4.83), 24 h): 1.85; solubility at 1 h ([2]; thermodynamic from solid, water, 1 h): > 2500 µg/mL; solubility at 24 h ([2]; thermodynamic from solid, water, 24 h): > 2500 µg/mL; Sample pH ([2]; water, 1 h): ~6.35; Sample pH ([2]; water, 24 h): 5.60; Hygroscopicity (in words) ([3]; DVS): slightly hygroscopic; Change by XRPD following the DVS analysis ([3]; after DVS from 2 to 95% RH): No change; Reversible mass gain (DVS) ([3]; from 2 to 95% relative humidity): 1.14 wt. %; Behaviour at high humidity ([3]; high humidity): stable; Form conversion by XRPD at ambient conditions [4]: no observable conversion; Change by XRPD after storage ([5]; 7 days): No visible change; Degradation by HPLC purity analysis after storage ([5]; 7 days): no degradation; Change by XRPD after storage ([5]; 11 days): No visible change; Degradation by HPLC purity analysis after storage ([5]; 11 days): no degradation; Stability on storage (in words) ([5]; over a week at 40° C. and 75% RH): stable

From US20240208963A1, “CRYSTALLINE MELANOCORTIN SUBTYPE-2 RECEPTOR (MC2R) ANTAGONIST” (Crinetics Pharmaceuticals, Inc., priority 2022, published 2024)
